The results in this text go back to patent US12084472B2 (Ardelyx, Inc., priority 2015, dated 2024).

Structures are written as SMILES.

The test concerns the target T1, human TGR5 (Homo sapiens, UniProt Q8TDU6).
T1 construct: expressed in transfected cells; host or cells: HEK293
T1 sequence (Q8TDU6 1-330): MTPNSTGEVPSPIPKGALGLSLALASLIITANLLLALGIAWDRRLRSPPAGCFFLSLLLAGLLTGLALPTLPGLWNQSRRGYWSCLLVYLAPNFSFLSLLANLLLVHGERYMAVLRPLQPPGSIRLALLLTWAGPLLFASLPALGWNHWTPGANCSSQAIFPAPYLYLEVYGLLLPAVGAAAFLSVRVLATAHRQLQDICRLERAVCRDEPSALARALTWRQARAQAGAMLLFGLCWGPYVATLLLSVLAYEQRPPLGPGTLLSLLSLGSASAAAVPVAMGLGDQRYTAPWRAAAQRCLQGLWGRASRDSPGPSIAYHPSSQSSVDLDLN
Put plainly: Cell-based TGR5 assay (cAMP generation, HTRF). To be noted: HEK293 cells stably transfected with human TGR5; cAMP by HTRF; 30 minutes at 37° C.; read-out: pEC50 Human TGR5 (converted). Put shortly:
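Read-out was HTRF detection of cAMP, converted to concentration via a standard curve and fitted (3-parameter logistic) for pEC50 and maximal response. Agonist stimulation used HEK293 cells stably transfected with human TGR5, incubated 30 min at 37° C in IBMX-containing buffer at 0.05 nM to 10 μM compound.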
(In general: TR-FRET usually uses a lanthanide donor and a delayed reading to cut background.)
On to `CN(CCOCCNC(=O)N[C@@H](CO)[C@@H](O)[C@H](O)[C@H](O)CO)S(=O)(=O)c1ccc(Cl)c(COC2(c3cnccc3-c3ccccc3OC3CC3)CC2)c1` (stereo in doubt) [Compound I-406, 1-(2-{2-[N-methyl4-chloro-3-({1-[4-(2-cyclopropoxyphenyl)pyridin-3-yl]cyclopropoxy}methyl)benzenesulfonamido]ethoxy}ethyl)-3-[(2S,3R,4S,5R)-1,3,4,5,6-pentahydroxyhexan-2-yl]urea], for which the EC50 was less than 100 nM.
Under `COCCN(CCCCNC(=O)NC[C@H](O)[C@@H](O)[C@H](O)[C@H](O)CO)S(=O)(=O)c1ccc(Cl)c(COC2(c3cnccc3-c3ccccc3OC3CC3)CC2)c1` (stereo in doubt) [Compound I-407, 1-{4-[N-(2-methoxyethyl)4-chloro-3-({1-[4-(2-cyclopropoxyphenyl)pyridin-3-yl]cyclopropoxy}methyl)benzenesulfonamido]butyl}-3-[(2S,3R,4R,5R)-2,3,4,5,6-pentahydroxyhexyl]urea] stands less than 100 nM.
For the molecule `O=C(NCCOCCNS(=O)(=O)c1ccc(Cl)c(COC2(c3cnccc3-c3ccccc3OC3CC3)CC2)c1)N[C@@H](CO)[C@@H](O)[C@H](O)[C@H](O)CO` (stereo in doubt) [Compound I-408, 1-(2-{2-[4-chloro-3-({1-[4-(2-cyclopropoxyphenyl)pyridin-3-yl]cyclopropoxy}methyl)benzenesulfonamido]ethoxy}ethyl)-3-[(2S,3R,4S,5R)-1,3,4,5,6-pentahydroxyhexan-2-yl]urea], the EC50 is less than 100 nM.
The same measure for `O=C(NCCCCCNS(=O)(=O)c1ccc(Cl)c(COC2(c3cnccc3-c3ccccc3OC3CC3)CC2)c1)N[C@@H](CO)[C@@H](O)[C@H](O)[C@H](O)CO` (stereo in doubt) [Compound I-409, 1-{5-[4-chloro-3-({1-[4-(2-cyclopropoxyphenyl)pyridin-3-yl]cyclopropoxy}methyl)benzenesulfonamido]pentyl}-3-[(2S,3R,4S,5R)-1,3,4,5,6-pentahydroxyhexan-2-yl]urea]: less than 100 nM; for `O=C(NCCCCNS(=O)(=O)c1ccc(Cl)c(COC2(c3cnccc3-c3ccccc3OC3CC3)CC2)c1)N[C@@H](CO)[C@@H](O)[C@H](O)[C@H](O)CO` (stereo in doubt) [Compound I-410, 1-{4-[4-chloro-3-({1-[4-(2-cyclopropoxyphenyl)pyridin-3-yl]cyclopropoxy}methyl)benzenesulfonamido]butyl}-3-[(2S,3R,4S,5R)-1,3,4,5,6-pentahydroxyhexan-2-yl]urea]: less than 100 nM; for `O=C(NCC1CCCN(S(=O)(=O)c2ccc(Cl)c(COC3(c4cnccc4-c4ccccc4OC4CC4)CC3)c2)C1)NC[C@H](O)[C@@H](O)[C@H](O)[C@H](O)CO` (stereo in doubt) [Compound I-426, 1-({1-[4-chloro-3-({1-[4-(2-cyclopropoxyphenyl)pyridin-3-yl]cyclopropoxy}methyl)benzenesulfonyl]piperidin-3-yl}methyl)-3-[(2S,3R,4R,5R)-2,3,4,5,6-pentahydroxyhexyl]urea]: less than 100 nM.
The same measure for `Clc1ccc(Cl)c(CNC2(c3cnccc3-c3ccccc3OC3CC3)CC2)c1` [Compound I-1, 1-[4-(2-cyclopropoxyphenyl)pyridin-3-yl]-N-[(2,5-dichlorophenyl)methyl]cyclopropan-1-amine]: less than 100 nM; for `CC(C)Oc1ccccc1-c1ccncc1C1(NCc2cc(Cl)ccc2Cl)CC1` [Compound I-2, N-[(2,5-dichlorophenyl)methyl]-1-{4-[2-(propan-2-yloxy)phenyl]pyridin-3-yl}cyclopropan-1-amine]: less than 100 nM.
As to `Fc1ccc(OC2CC2)c(-c2ccncc2C2(NCc3cc(Cl)ccc3Cl)CC2)c1` [Compound I-3, 1-[4-(2-cyclopropoxy-5-fluorophenyl)pyridin-3-yl]-N-[(2,5-dichlorophenyl)methyl]cyclopropan-1-amine], the EC50 was less than 100 nM.
The same measure for `COc1ccccc1-c1ccncc1C1(NCc2cc(Cl)ccc2Cl)CC1` [Compound I-4, N-[(2,5-dichlorophenyl)methyl]-1-[4-(2-methoxyphenyl)pyridin-3-yl]cyclopropan-1-amine]: 126 to 1000 nM.
